In brackets after ≈: the same amount, converted by molar mass. Like-named read-outs stand apart in the source and are kept apart here.
Experiments:
[1] = Solubility of BPR0C261 in different carriers or mixed carriers; type: physicochemical; settings: room temperature
Description: The solubility of BPR0C261 in different drug carriers or mixed carriers was evaluated. The solubility is defined as the maximum amount of a compound dissolved in a carrier or mixed carrier at room temperature.

[2] = Oral bioavailability of BPR0C261 (po vs IV PK profiles, plasma by HPLC-Tandem Mass spectrometry); type: in vivo; settings: mouse, 2 mg/kg, po by gavage, read-out: Oral bioavailability (F %)
Description: The oral bioavailability of BPR0C261 was assessed by comparing the pharmacokinetic (“PK”) profiles obtained from orally administered (“po”) BPR0C261 in various oral formulation described herein with the PK profile obtained from intravenously administered (“IV”) BPR0C261.
An intravenous formulation of BPR0C261 (carriers: 5% DMSO, 25% Cremophor EL, and 70% water, v/v/v) was administered intravenously by a bolus injection to a group of three mice each via the tail vein, in a single dose of 2 mg/Kg body weight. A blood sample (0.15 mL) was drawn at different points (pre-dose, 2 min, 5 min, 15 min, 30 min. 1 hr, 2 hr, 4 hr, 6 hr, 8 hr, and 24 hr after dosing) from each animal via the cardiac puncture and stored in ice (0-5° C.). […]
Plasma was separated from the blood sample by centrifugation at 15,000 g for 15 min at 4° C. […] All plasma samples were analyzed for the BPR0C261 concentrations by HPLC-Tandem Mass spectrometry.
BPR0C261 plasma concentration data were used to obtain the PK profile for the IV or po administration, i.e., a plasma-concentration vs. time curve. The area under the curve (“AUC”) was then calculated. Oral bioavailability (F %) was determined by comparing the dose-normalized area under the curve for the oral formulation (“AUCpo/dosepo”) with that for the intravenous formulation (“AUCIV/doseIV”), i.e., F %=[AUCpo/dosepo]/[AUCIV/doseIV].

Cc1cc(Cn2cc(C(=O)C(=O)Nc3cc(C)ns3)c3ccccc32)on1 [BPR0C261, N-(3-methylisothiazol-5-yl)-2-[1-(3-methylisoxazol-5-ylmethyl)-1H-indol-3-yl]-2-oxoacetamide]
solubility ([1]; aqueous with cosolvent or surfactant or cyclodextrin, carrier 3: DMSO (20%), Tween 80 (10%), and DDW (70%)): < 5000 µg/mL | solubility ([1]; aqueous with cosolvent or surfactant or cyclodextrin, carrier 13: DMSO (5%), Cremophor EL (25%), and DDW (70%)): < 5000 µg/mL | solubility ([1]; aqueous with cosolvent or surfactant or cyclodextrin, carrier 14: Methylcellulose (1%), Tween 80 (2%), PEG 400 (10%), and DDW (87%)): < 1000 µg/mL | solubility ([1]; carrier 1: Double distilled water (DDW)): ~0.12 µg/mL (≈ 0.000315 mM) | solubility ([1]; organic solvent or mixture, carrier 2: DMSO): ~5000 µg/mL (≈ 13.1 mM) | solubility ([1]; organic solvent or mixture, carrier 4: Ethanol (3%), Glycerol (2%), PEG 400 (70%), PG (20%), and Transcutol (5%)): 10000 to 30000 µg/mL (≈ 26.3 to 78.9 mM) | solubility ([1]; organic solvent or mixture, carrier 5: Glycerol (5%) and PEG 400 (95%)): 10000 to 30000 µg/mL (≈ 26.3 to 78.9 mM) | solubility ([1]; organic solvent or mixture, carrier 6: TPGS (20%) and PEG 400 (80%)): 10000 to 30000 µg/mL (≈ 26.3 to 78.9 mM) | solubility ([1]; organic solvent or mixture, carrier 7: Transcutol (10%) and PEG 400 (90%)): 10000 to 30000 µg/mL (≈ 26.3 to 78.9 mM) | solubility ([1]; organic solvent or mixture, carrier 8: DMSO (10%), PEG 400 (80%), and propylene glycol (10%)): 10000 to 30000 µg/mL (≈ 26.3 to 78.9 mM) | solubility ([1]; organic solvent or mixture, carrier 9: Transcutol (10%), Cremophor EL (20%), and PEG 400 (70%)): 10000 to 30000 µg/mL (≈ 26.3 to 78.9 mM) | solubility ([1]; organic solvent or mixture, carrier 10: TPGS (20%), Transcutol (20%), and PEG 400 (60%)): ~50000 µg/mL (≈ 131 mM) | solubility ([1]; organic solvent or mixture, carrier 11: TPGS (40%), Transcutol (20%), and PEG 400 (40%)): ~50000 µg/mL (≈ 131 mM) | solubility ([1]; organic solvent or mixture, carrier 12: TPGS (75%) and Transcutol (25%)): ~50000 µg/mL (≈ 131 mM) | bioavailability ([2]; formulation containing 5% DMSO, 25% Cremophor EL, and 70% water (v/v/v), vs IV 2 mg/Kg): 18% | bioavailability ([2]; formulations containing TPGS, Transcutol, and optionally PEG 400, vs IV 2 mg/Kg): 25 to 80%

— patent publication US8026271B2, “Formulations of indol-3-yl-2-oxoacetamide compounds” (National Health Research Institutes, priority 2008, dated 2011)
